Results taken from patent US11427783B2, “Perfuming compositions” (Firmenich SA, priority 2016, dated 2022).
Where two headings read alike, the source gives them in different places.

What was measured:
[1] = Log P (n-octanol/water) of perfuming compounds
[2] = Volatility of perfuming compounds in air; assay type: physicochemical; conditions: for Volatility: Table 5, perfuming compounds having a green note
[3] = Table 6, perfuming compounds having a fruity note
[4] = n-octanol/water, perfuming compounds having a fruity note (Table 6)
[5] = Table 8, perfuming compounds having a sweet note
[6] = Table 9, perfuming compounds having a gourmand note
[7] = Table 5, perfuming compounds having a green note

| Compound | logP (physchem; n-octanol/water) | Log P (n-octanol/water) [1, 4] | further results |
| --- | --- | --- | --- |
| CC(C)C(=O)OCCOc1ccccc1 [2-phenoxyethyl 2-methylpropanoate] | 2.82 |  | Log P (n-octanol/water) [1, 3]: 2.82 |
| CC(=O)OCC=C(C)C [3-methyl-2-buten-1-yl acetate] | 2.19 | 2.19 |  |
| CC(C)(O)CCC1CCCCC1 [4-CYCLOHEXYL-2-METHYL-2-BUTANOL] | 3.93 |  | Log P (n-octanol/water) ([1]; Table 7, citrus note): 3.93 |
| C=CCCCCCCCCO [9-DECEN-1-OL] | 3.7 |  | Log P (n-octanol/water) ([1]; Table 7, citrus note): 3.70 |
| CCCCCC/C(C=O)=C\c1ccccc1 [(2E)-2-benzylideneoctanal] | 4.86 |  | Log P (n-octanol/water) [1, 3]: 4.86 |
| CC(=O)OC/C=C(/C)CCC=C(C)C [(2Z)-3,7-dimethyl-2,6-octadien-1-yl acetate] | 3.81 |  | Log P (n-octanol/water) [1, 3]: 3.81 |
| CC/C=C\CCOC(=O)C/C=C\CC [(3Z)-3-hexen-1-yl (3Z)-3-hexenoate] | 4.22 | 4.22 | Log P (n-octanol/water) [1, 5]: 4.22; Log P (n-octanol/water) [1, 6]: 4.22 |
| CC/C=C\CCOC(=O)c1ccccc1 [(3Z)-3-hexen-1-yl benzoate] | 4.21 |  | Log P (n-octanol/water) [1, 3]: 4.21; Log P (n-octanol/water) ([1]; Table 7, citrus note): 4.21 |
| CC/C=C\CCOC(=O)CCC [(3Z)-3-hexen-1-yl butyrate] | 3.59 | 3.59 |  |
| CC/C=C\CCOC(=O)OC [(3Z)-hex-3-en-1-yl methyl carbonate] | 2.97 | 2.97 |  |
| O=C1CCCCCCC/C=C/CCCCCCO1 [(10E)-oxacycloheptadec-10-en-2-one] | 6.15 |  | Log P (n-octanol/water) ([1]; Table 7, citrus note): 6.15 |
| C/C=C/c1ccc(OC(C)=O)c(OC)c1 [(E)-2-METHOXY-4-(1-PROPENYL)PHENYL ACETATE] | 2.56 |  | Log P (n-octanol/water) ([1]; Table 7, citrus note): 2.56 |
| CCCCC/C(C=O)=C\c1ccccc1 [(E)-2-PENTYL-3-PHENYL-2-PROPENAL] | 4.3 |  | Log P (n-octanol/water) ([1]; Table 7, citrus note): 4.30 |
| O=Cc1ccccc1 [BENZALDEHYDE] |  |  | logP (physchem): 1.33; Log P (n-octanol/water) [1, 5]: 1.33 |
| O=C(OCc1ccccc1)c1ccccc1 [BENZYL BENZOATE] | 3.64 |  | Log P (n-octanol/water) ([1]; Table 7, citrus note): 3.64 |
| CCC(=O)OCc1ccccc1 [BENZYL PROPANOATE] | 2.35 |  | Log P (n-octanol/water) [1, 3]: 2.35 |

| Compound | logP (physchem; n-octanol/water) | Log P (n-octanol/water) [1, 4] | further results |
| --- | --- | --- | --- |
| CCCC(=O)OCC [ETHYL BUTANOATE] | 2.03 | 2.03 |  |
| CCCCCC(=O)OCC [ETHYL HEXANOATE] | 3.12 | 3.12 | Log P (n-octanol/water) [1, 5]: 3.12; Log P (n-octanol/water) [1, 6]: 3.12 |
| CCCCCCOC(=O)c1ccccc1O [HEXYL 2-HYDROXYBENZOATE] | 5.55 |  | Log P (n-octanol/water) [1, 3]: 5.55; Log P (n-octanol/water) ([1]; Table 7, citrus note): 5.55 |
| CCCCCCOC(C)=O [HEXYL ACETATE] | 3.09 | 3.09 |  |
| CCCCCCOC(=O)CCCCC [HEXYL HEXANOATE] | 5.56 |  | Volatility (μg/l air) [2, 3]: 105.52 μg/l air |
| CCCCCC(=O)OC [METHYL HEXANOATE] | 2.65 | 2.65 |  |
| CCCCCCCC=O [OCTANAL] | 2.94 |  | Volatility [2]: 4147.61 μg/l air |
| CCC(C)c1nccnc1OC (stereo not drawn) [PYRAZOBUTYLE] |  |  | Volatility [2]: 1617.21 μg/l air; Log P (n-octanol/water) [1, 7]: 2.88 |
| O=Cc1ccc2c(c1)OCO2 [benzo[d][1,3]dioxole-5-carbaldehyde] |  |  | Volatility (μg/l air) [2, 6]: 61.82 μg/l air; logP (physchem): 1.52 |
| CCCCC/C=C\C=C\C(=O)OCC [ethyl (2E,4Z)-2,4-decadienoate] | 4.69 |  | Log P (n-octanol/water) [1, 3]: 4.69 |
| CCCCCCCC(=O)OCC [ethyl octanoate] | 4.2 |  | Volatility [2]: 800.05 μg/l air |
| CCCCCCOC(=O)C(C)C [hexyl 2-methylpropanoate] | 4.31 | 4.31 |  |
| C/C=C(\C)C(=O)OCCCCCC [hexyl (2E)-2-methyl-2-butenoate] | 4.8 | 4.80 | Log P (n-octanol/water) [1, 5]: 4.80 |
| CCCCCC/C=C/C(=O)OC [methyl (2E)-2-nonenoate] | 4.05 | 4.05 |  |
| (2,2-DIMETHOXYETHYL)BENZENE |  |  | Volatility [2]: 456.97 μg/l air; Log P (n-octanol/water) [1, 7]: 2.10 |
